The subject of data set [1] is PDX511 medulloblastoma cells. In words: Cell viability of PDX511 medulloblastoma cells at 4 hours. It is filed as cell-based, human (patient-derived).
Data set [2] deals with Myc. Briefly: Myc inhibition assay: Myc expression per cell by anti-Myc immunofluorescence, high-content imaging. It is filed as cell-based, human (patient-derived medulloblastoma xenograft cells). In a few lines:
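IC50 comes from high-content imaging of per-cell Myc immunostaining (DAPI-labelled nuclei) after 4 h compound exposure. Cells were freshly dissociated medulloblastoma PDX tumours, never passaged in vitro, grown in NSG mouse cerebellum, plated serum-free and recovered overnight before treatment.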

For data set [3], the system named is retinoblastoma (Rb) protein. Briefly: Rb protein expression in PDX511 medulloblastoma cells (immunofluorescence). It is filed as cell-based, human (patient-derived).
[4] abbreviates: Table 1, medulloblastoma PDX cells, 4 h, read-out: IC50 (Myc inhibition).
[5] abbreviates: Table 2, medulloblastoma PDX cells, 4 h, read-out: MYC Inhibition IC50.

Like-named read-outs stand apart in the source and are kept apart here.

As a reminder, the IC50 is the point on the concentration scale where inhibition reaches its midpoint.

Turning to `COc1ccc(Nc2nccc(-c3ccncc3)n2)cc1` [Compound A], the “effect on cell viability” value in data set [1] is reported as “no effect”. Moreover, the IC50 in data set [2] (read-out: Myc expression inhibition IC50, PDX511 medulloblastoma cells, 4 h (FIG. 2A)) was determined as 11.7 µM. For the same compound, the “effect on expression of the retinoblastoma (Rb) protein” value in data set [3] was “no effect”.

Regarding `O=C(Nc1cccc(Nc2nccc(-c3ccc4[nH]cnc4c3)n2)c1)c1ccccc1` [Compound 1, N-(3-((4-(1H-benzo[d]imidazol-5-yl)pyrimidin-2-yl)amino)phenyl)benzamide], the IC50 in data set [2] (setting [4]) and in data set [2] (setting [5]) was below 0.2 µM each time.

As for `Cc1ccccc1Nc1nccc(-c2ccc3[nH]cnc3c2)n1` [Compound 51, 4-(1H-benzo[d]imidazol-5-yl)-N-(o-tolyl)pyrimidin-2-amine], the 50% inhibitory concentration (IC50) in data set [2] (setting [4]) and in data set [2] (setting [5]) was 1 to 10 µM in each case.

Consider `CN(c1ccccc1)c1nccc(-c2ccnc(O)c2)n1` [Compound 221, 4-(2-(methyl(phenyl)amino)pyrimidin-4-yl)pyridin-2-ol], for which the IC50 in data set [2] (setting [4]) and in data set [2] (setting [5]) was 10 to 100 µM throughout.

`CN(c1ccccc1)c1nccc(-c2cccc(O)n2)n1` [Compound 225, 6-(2-(methyl(phenyl)amino)pyrimidin-4-yl)pyridin-2-ol]: the IC50 in data set [2] (setting [4]) and in data set [2] (setting [5]) was 10 to 100 µM throughout.

As to `Fc1cccc(Nc2nccc(-c3ccc4[nH]ccc4c3)n2)c1` [Compound 202, N-(3-fluorophenyl)-4-(1H-indol-5-yl)pyrimidin-2-amine], the IC50 in data set [2] (setting [4]) and in data set [2] (setting [5]) was 10 to 100 µM throughout.

Take `c1ccc(-c2cccc(Nc3nccc(-c4ccc5[nH]cnc5c4)n3)c2)nc1` [Compound 44, 4-(1H-benzo[d]imidazol-5-yl)-N-(3-(pyridin-2-yl)phenyl)pyrimidin-2-amine]: the IC50 in data set [2] (setting [4]) and in data set [2] (setting [5]) was below 0.2 µM each time.

`NS(=O)(=O)c1cccc(Nc2nccc(-c3ccc4[nH]cnc4c3)n2)c1` [Compound 46, 3-((4-(1H-benzo[d]imidazol-5-yl)pyrimidin-2-yl)amino)benzenesulfonamide]: the IC50 in data set [2] (setting [4]) and in data set [2] (setting [5]) was below 0.2 µM throughout.

For `c1cncc(-c2cccc(Nc3nccc(-c4ccc5[nH]cnc5c4)n3)c2)c1` [Compound 45, 4-(1H-benzo[d]imidazol-5-yl)-N-(3-(pyridin-3-yl)phenyl)pyrimidin-2-amine], the IC50 in data set [2] (setting [4]) and in data set [2] (setting [5]) was below 0.2 µM in each case.

`c1cc(-c2ccc3[nH]cnc3c2)nc(NC2CCCCC2)n1` [Compound 96, 4-(1H-benzo[d]imidazol-5-yl)-N-cyclohexylpyrimidin-2-amine]: the IC50 in data set [2] (setting [4]) and in data set [2] (setting [5]) was 1 to 10 µM throughout.

Turning to `Oc1ccc(-c2ccnc(Nc3cccc(F)c3)n2)cn1` [Compound 213, 5-(2-((3-fluorophenyl)amino)pyrimidin-4-yl)pyridin-2-ol], the IC50 in data set [2] (setting [4]) and in data set [2] (setting [5]) was 1 to 10 µM each time.

Turning to `FC(F)(F)c1cccc(Nc2ncnc(-c3cnc4nc[nH]c4c3)n2)c1` [Compound 105, 4-(1H-Imidazo[4,5-b]pyridin-6-yl)-N-(3-(trifluoromethyl)phenyl)-1,3,5-triazin-2-amine], the IC50 in data set [2] (setting [4]) and in data set [2] (setting [5]) was below 0.2 µM each time.

Consider `CN1CCN(c2nccc(-c3ccc4[nH]cnc4c3)n2)CC1` [Compound 74, 5-(2-(4-methylpiperazin-1-yl)pyrimidin-4-yl)-1H-benzo[d]imidazole], for which the IC50 in data set [2] (setting [4]) and in data set [2] (setting [5]) was 1 to 10 µM throughout.

As to `CN(c1cccc(Nc2nccc(-c3ccc4[nH]cnc4c3)n2)c1)S(=O)(=O)c1ccccc1` [Compound 262, N-(3-((4-(1H-benzo[d]imidazol-5-yl)pyrimidin-2-yl)amino)phenyl)-N-methylbenzenesulfonamide], the IC50 in data set [2] (setting [4]) and in data set [2] (setting [5]) was 1 to 10 µM each time.

`Fc1ccc(Nc2nccc(-c3ccc4[nH]cnc4c3)n2)cc1` [Compound 81, 4-(1H-benzo[d]imidazol-5-yl)-N-(4-fluorophenyl)pyrimidin-2-amine]: the 50% inhibitory concentration (IC50) in data set [2] (setting [4]) and in data set [2] (setting [5]) was 0.2 to 1 µM each time.

With `Fc1cccc(Nc2nccc(-c3ccc4[nH]ncc4c3)n2)c1` [Compound 165, N-(3-Fluorophenyl)-4-(1H-indazol-5-yl)pyrimidin-2-amine], the IC50 in data set [2] (setting [4]) and in data set [2] (setting [5]) was 1 to 10 µM each time.

For `COc1cc(-c2ccnc(Nc3cccc(OCCN)c3)n2)ccn1` [Compound 121, N-(3-(2-aminoethoxy)phenyl)-4-(2-methoxypyridin-4-yl)pyrimidin-2-amine], the IC50 in data set [2] (setting [4]) and in data set [2] (setting [5]) was 1 to 10 µM each time.

In the case of `Oc1cc(-c2ccnc(Cc3ccccc3)n2)ccn1` [Compound 229, 4-(2-Benzylpyrimidin-4-yl)pyridin-2-ol], the IC50 in data set [2] (setting [4]) and in data set [2] (setting [5]) was 10 to 100 µM throughout.

On to `c1cc(Nc2nccc(-c3ccc4[nH]cnc4c3)n2)cc(-c2ccn[nH]2)c1` [Compound 261, N-(3-(1H-pyrazol-5-yl)phenyl)-4-(1H-benzo[d]imidazol-5-yl)pyrimidin-2-amine], for which the IC50 in data set [2] (setting [4]) and in data set [2] (setting [5]) was below 0.2 µM each time.

For the compound `Oc1ccc(-c2ccnc(Nc3ccccc3)n2)cn1` [Compound 238, 5-(2-(phenylamino)pyrimidin-4-yl)pyridin-2-ol], the IC50 in data set [2] (setting [4]) and in data set [2] (setting [5]) was 1 to 10 µM each time.

Turning to `COc1ccc(-c2ccnc(Nc3cccc(F)c3)n2)nc1` [Compound 174, N-(3-fluorophenyl)-4-(5-methoxypyridin-2-yl)pyrimidin-2-amine], the IC50 in data set [2] (setting [4]) and in data set [2] (setting [5]) was 10 to 100 µM each time.

With `COc1ccccc1Nc1nccc(-c2ccc3[nH]cnc3c2)n1` [Compound 61, 4-(1H-benzo[d]imidazol-5-yl)-N-(2-methoxyphenyl)pyrimidin-2-amine], the IC50 in data set [2] (setting [4]) and in data set [2] (setting [5]) was 1 to 10 µM throughout.

With `COc1cc(-c2ncnc(N(C)c3ccccc3)n2)ccn1` [Compound 216, 4-(2-methoxypyridin-4-yl)-N-methyl-N-phenyl-1,3,5-triazin-2-amine], the IC50 in data set [2] (setting [4]) and in data set [2] (setting [5]) was 10 to 100 µM throughout.

Turning to `c1cc(Nc2nccc(-c3ccc4[nH]cnc4c3)n2)cc(N2CCOCC2)c1` [Compound 102, 4-(1H-benzo[d]imidazol-5-yl)-N-(3-morpholinophenyl)pyrimidin-2-amine], the IC50 in data set [2] (setting [4]) and in data set [2] (setting [5]) was below 0.2 µM throughout.

Consider `COc1cc(Nc2ccnc(Nc3cccc(F)c3)n2)ccn1` [Compound 122, N^2-(3-fluorophenyl)-N^4-(2-methoxypyridin-4-yl)pyrimidine-2,4-diamine], for which the half-maximal inhibitory concentration (IC50) in data set [2] (setting [4]) and in data set [2] (setting [5]) was 1 to 10 µM in each case.

Values taken from patent US20260356817A1, “AMINOPYRIMIDINE AND AMINOTRIAZINE DERIVATIVES AS MYC PROTEIN MODULATORS” (Sanford Burnham Prebys Medical Discovery Institute, priority 2022, published 2026).
